Assay results taken from the NIST ThermoML archive (doi:10.1021/je800828y).
Numbers after ± are expanded uncertainties.

Details: 351.44 K; Liquid; Ebulliometric method (Recirculating still)

## CCO [ethanol]
  vapor or sublimation pressure: 101.3 ± 0.1 kPa
